The values that follow come from ChEMBL document CHEMBL4052619, “First example of peptides targeting the dimer interface of Leishmania infantum trypanothione reductase with potent in vitro antileishmanial activity” (Eur J Med Chem, 2017).

Active and inactive are the calls of the source. No cut-off for these calls is given here. Bridge positions count the residues as written; N and C are the ends. Square brackets hold non-standard residues; d marks the D form. Peptide text beside a SMILES is read from it. ξ: configuration not given here. ξQ = NC(=O)CCC(N)C(=O)O; ξNle = CCCCC(N)C(=O)O; Aib = CC(C)(N)C(=O)O

Data set [1] has as its system Leishmania infantum. Nature of the data set: Drug localization in Leishmania infantum MCAN/ES/89/IPZ229/1/89 promastigotes after 24 hrs by fluorescence microscopic method. It is filed as ADME. The settings on record: in vivo.
Data set [2] has as its system Leishmania infantum. The data set can be described thus: Drug localization in Leishmania infantum MCAN/ES/89/IPZ229/1/89 promastigotes flagellum after 4 hrs by fluorescence microscopic method. It is filed as ADME. The settings on record: in vivo.
For data set [3], the target named is T1, Trypanothione reductase (Leishmania infantum, UniProt A4HSF7). Nature of the data set: Inhibition of recombinant His/FLAG-tagged Leishmania infantum TryR dimerization assessed as dimer disruption after 1 hr by ELISA. (In general: ELISA stands for enzyme-linked immunosorbent assay.)
The target in data set [4] is T1, Trypanothione reductase. Nature of the data set: Inhibition of recombinant Leishmania infantum TryR preincubated for 10 mins followed by T[S]2 substrate addition and measured after 1 hr in presence of NADPH.
Data set [5] can be described thus: Stability assessed as Tritirachium album proteinase K- mediated compound degradation by measuring half life at 100 uM by HPLC method. Type of data set: ADME. Particulars: parengyodontium album.
In data set [6] the test system is Leishmania infantum. The data set can be described thus: Antileishmanial activity against Leishmania infantum axenic amastigotes assessed as induction of cell death at 25 uM after 24 hrs by propidium iodide staining based flow cytometry. It is filed as functional. (Flow cytometry measures light scatter and fluorescence of single cells or particles in a stream.)

In data set [7] the test system is Leishmania infantum. Nature of the data set: Antileishmanial activity against Leishmania infantum MCAN/ES/89/IPZ229/1/89 promastigotes assessed as induction of cell death at 25 uM after 24 hrs by propidium iodide staining based flow cytometry. Type of data set: functional.
Data set [8] can be described thus: Cytotoxicity against human THP1 cells assessed as induction of cell death after 24 hrs by propidium iodide staining based flow cytometry. The settings on record: THP-1 cells, read-out: LC50.
The test system of data set [9] is Leishmania infantum. The data set can be described thus: Antileishmanial activity against Leishmania infantum MCAN/ES/89/IPZ229/1/89 promastigotes assessed as induction of cell death after 24 hrs by propidium iodide staining based flow cytometry. Particulars: MCAN/ES/89/IPZ229/1/89, 24 h. It is filed as functional.
The subject of data set [10] is Leishmania infantum. Nature of the data set: Antileishmanial activity against Leishmania infantum axenic amastigotes assessed as induction of cell death after 24 hrs by propidium iodide staining based flow cytometry. Type of data set: functional.

T1 sequence (A4HSF7 whole entry): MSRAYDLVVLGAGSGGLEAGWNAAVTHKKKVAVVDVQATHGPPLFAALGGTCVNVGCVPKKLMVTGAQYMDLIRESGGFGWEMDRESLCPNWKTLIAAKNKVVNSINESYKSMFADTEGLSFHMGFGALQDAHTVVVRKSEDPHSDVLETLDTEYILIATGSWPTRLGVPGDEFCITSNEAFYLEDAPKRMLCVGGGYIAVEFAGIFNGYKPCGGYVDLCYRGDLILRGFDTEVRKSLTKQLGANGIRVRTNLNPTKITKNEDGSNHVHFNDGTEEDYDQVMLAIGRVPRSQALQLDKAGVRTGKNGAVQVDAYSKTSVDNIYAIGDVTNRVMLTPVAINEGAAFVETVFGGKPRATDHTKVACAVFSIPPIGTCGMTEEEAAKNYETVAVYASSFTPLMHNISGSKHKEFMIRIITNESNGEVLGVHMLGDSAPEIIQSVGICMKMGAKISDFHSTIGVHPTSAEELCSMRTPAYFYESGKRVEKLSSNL

`CCCCC(NC(=O)[C@H](CCCCN)NC(=O)C(CCCC)NC(=O)[C@H](CO)NC(=O)[C@@H](NC(=O)CNC(=O)[C@@H](NC(=O)[C@H](CO)NC(=O)[C@H](CCC(N)=O)NC(=O)[C@@H](NC(=O)[C@@H](NC(=O)[C@H](CCCCN)NC(=O)[C@@H]1CCCN1C(=O)COCCOCCNC(=S)Nc1ccc(-c2c3ccc(=O)cc-3oc3cc(O)ccc23)c(C(=O)O)c1)[C@@H](C)CC)[C@@H](C)CC)C(C)C)[C@@H](C)CC)C(=O)N[C@H](CCCNC(=N)N)NC(=O)[C@H](CCCNC(=N)N)NC(=O)[C@H](CCCNC(=N)N)NC(=O)[C@H](CCCNC(=N)N)NC(=O)[C@H](CCCNC(=N)N)NC(=O)[C@H](CCCNC(=N)N)NC(=O)[C@H](CCCNC(=N)N)NC(=O)[C@H](CCCNC(=N)N)NC(=O)[C@@H](N)CCCNC(=N)N` (some centres undefined): the Drug uptake entry in the data set on Leishmania infantum [1] and with Leishmania infantum [2] was “Active” throughout.

Broadly, the IC50 is the concentration needed to halve the response being measured. What is called half-life is how long it takes for the measured level to halve. With `CCCCC(NC(=O)[C@H](CCCCN)NC(=O)C(CCCC)NC(=O)[C@H](CO)NC(=O)[C@@H](NC(=O)CNC(=O)[C@@H](NC(=O)[C@H](CO)NC(=O)[C@H](CCC(N)=O)NC(=O)[C@@H](NC(=O)[C@@H](NC(=O)[C@H](CCCCN)NC(=O)[C@@H]1CCCN1C(C)=O)[C@@H](C)CC)[C@@H](C)CC)C(C)C)[C@@H](C)CC)C(N)=O` (some centres undefined), the IC50 turned out to be 13.5 µM on Trypanothione reductase [3] and 1.2 µM on Trypanothione reductase [4]. The half-life at 100 µM in data set [5] turned out to be 23 min. The outcome with Leishmania infantum [6] and in the data set on Leishmania infantum [7] was inactive.

As to `CC[C@H](C)[C@H](NC(=O)CNC(=O)[C@@H](NC(=O)[C@H](CO)NC(=O)[C@H](CCC(N)=O)NC(=O)[C@@H](NC(=O)[C@@H](NC(=O)[C@H](CCCCN)NC(=O)[C@@H]1CCCN1C(C)=O)[C@@H](C)CC)[C@@H](C)CC)C(C)C)C(N)=O`, the IC50 on Trypanothione reductase [3] came to 20.8 µM; at Trypanothione reductase [4] it was 3.7 µM. Also, the outcome with Leishmania infantum [6] and in the data set on Leishmania infantum [7] was inactive.

`CCCCC(NC(=O)[C@@H]1CCCCNC(=O)CC[C@H](NC(=O)[C@@H](NC(=O)[C@H](CO)NC(=O)[C@H](CCC(N)=O)NC(=O)[C@@H](NC(=O)[C@@H](NC(=O)[C@H](CCCCN)NC(=O)[C@@H]2CCCN2C(C)=O)[C@@H](C)CC)[C@@H](C)CC)C(C)C)C(=O)N[C@@H]([C@@H](C)CC)C(=O)N[C@@H](CO)C(=O)NC(CCCC)C(=O)N1)C(N)=O` (some centres undefined): the IC50 on Trypanothione reductase [3] came to 12.1 µM; at Trypanothione reductase [4], 27 µM. For the same compound, the result in the data set on Leishmania infantum [6] and with Leishmania infantum [7] was inactive.

Turning to `CC[C@H](C)[C@H](NC(=O)CNC(=O)[C@@H]1CCCCNC(=O)CC[C@H](NC(=O)[C@H](CCCCN)NC(=O)[C@@H]2CCCN2C(C)=O)C(=O)N[C@@H]([C@@H](C)CC)C(=O)N[C@@H](CCC(N)=O)C(=O)N[C@@H](CO)C(=O)N1)C(N)=O` (Ac-PKEIQSKGI-NH2; lactam 3-7), the IC50 at Trypanothione reductase [3] and on Trypanothione reductase [4] was greater than 75 µM throughout. The result in the data set on Leishmania infantum [6] and in the data set on Leishmania infantum [7] was inactive.

Turning to `CCCCC(NC(=O)[C@H](CCCCN)NC(=O)C(CCCC)NC(=O)[C@H](CO)NC(=O)[C@@H](NC(=O)CNC(=O)[C@@H]1CCCCNC(=O)CC[C@H](NC(=O)[C@H](CCCCN)NC(=O)[C@@H]2CCCN2C(C)=O)C(=O)N[C@@H]([C@@H](C)CC)C(=O)N[C@@H](CCC(N)=O)C(=O)N[C@@H](CO)C(=O)N1)[C@@H](C)CC)C(N)=O` (some centres undefined) (Ac-PKEIQSKGIS[ξNle]K[ξNle]-NH2; lactam 3-7), the IC50 came out at 9.9 µM on Trypanothione reductase [3] and 0.9 µM on Trypanothione reductase [4]. In addition, in data set [5], the half-life at 100 µM worked out at 52 min. Further, the result in the data set on Leishmania infantum [6] and in the data set with Leishmania infantum [7] was inactive.

Take `CCCCC(NC(=O)[C@H](CCCCN)NC(=O)[C@@H]1CCCCNC(=O)CC[C@H](NC(=O)[C@H](CO)NC(=O)[C@H](CCC(N)=O)NC(=O)[C@@H](NC(=O)[C@@H](NC(=O)[C@H](CCCCN)NC(=O)[C@@H]2CCCN2C(C)=O)[C@@H](C)CC)[C@@H](C)CC)C(=O)NCC(=O)N[C@@H]([C@@H](C)CC)C(=O)N[C@@H](CO)C(=O)N1)C(N)=O` (some centres undefined) (Ac-PKIIQSEGISKK[ξNle]-NH2; lactam 7-11): the IC50 on Trypanothione reductase [3] and at Trypanothione reductase [4] was greater than 75 µM in each case. Also, the result in the data set with Leishmania infantum [6] and with Leishmania infantum [7] was inactive.

The term LC50 denotes the concentration that kills 50% of the test population. Consider `CCCCC(NC(=O)[C@H](CCCCN)NC(=O)C(CCCC)NC(=O)[C@H](CO)NC(=O)[C@@H](NC(=O)CNC(=O)[C@@H]1CCCCNC(=O)CC[C@H](NC(=O)[C@H](CCCCN)NC(=O)[C@@H]2CCCN2C(=O)C(C)(C)NC(=O)[C@H](CCCNC(=N)N)NC(=O)[C@H](CCCNC(=N)N)NC(=O)C(C)(C)NC(=O)[C@H](CCCNC(=N)N)NC(=O)[C@H](CCCNC(=N)N)NC(=O)C(C)(C)NC(=O)[C@H](CCCNC(=N)N)NC(=O)[C@H](CCCNC(=N)N)NC(C)=O)C(=O)N[C@@H]([C@@H](C)CC)C(=O)NC(CCC(N)=O)C(=O)N[C@@H](CO)C(=O)N1)[C@@H](C)CC)C(N)=O` (some centres undefined) (Ac-RR[Aib]RR[Aib]RR[Aib]PKEI[ξQ]SKGIS[ξNle]K[ξNle]-NH2; lactam 12-16), for which the CC50 at 24 h in [8] amounted to 5.2 µM. Besides, the 50% lethal concentration (LC50) in the data set with Leishmania infantum [9] is 6.4 µM; in the data set with Leishmania infantum [10], 10.4 µM.

As for `CCCCC(NC(=O)[C@H](CCCCN)NC(=O)C(CCCC)NC(=O)[C@H](CO)NC(=O)[C@@H](NC(=O)[C@@H]1CCCCNC(=O)CC[C@H](NC(=O)[C@@H](NC(=O)[C@H](CCCCN)NC(=O)[C@@H]2CCCN2C(C)=O)[C@@H](C)CC)C(=O)N[C@@H](CCC(N)=O)C(=O)NC(CO)C(=O)N[C@@H](C(C)C)C(=O)N1)[C@@H](C)CC)C(N)=O` (single isomer, unassigned), the values for the IC50 on Trypanothione reductase [3] and at Trypanothione reductase [4] were 14.4 µM and 5.3 µM, respectively. Besides, the half-life at 100 µM in data set [5] was found to be 64 min. Besides, the outcome in the data set with Leishmania infantum [6] and in the data set with Leishmania infantum [7] was inactive.

For `CC[C@H](C)[C@H](NC(=O)[C@@H]1CCCCNC(=O)CC[C@H](NC(=O)[C@@H](NC(=O)[C@H](CCCCN)NC(=O)[C@@H]2CCCN2C(C)=O)[C@@H](C)CC)C(=O)N[C@@H](CCC(N)=O)C(=O)NC(CO)C(=O)N[C@@H](C(C)C)C(=O)N1)C(N)=O` (single isomer, unassigned), the IC50 on Trypanothione reductase [3] and on Trypanothione reductase [4] was greater than 75 µM in each case. Besides, the result with Leishmania infantum [6] and in the data set with Leishmania infantum [7] was inactive.

For `CCCCCCCCCCCCCCCCCCOCC(COP(=O)([O-])OCC[N+](C)(C)C)OC` (centres undefined) [EDELFOSINE], the CC50 at 24 h in data set [8] worked out at 1 µM. For the same compound, the LC50 is 9 µM in the data set with Leishmania infantum [9] and 0.6 µM in the data set on Leishmania infantum [10].

For the compound `CCCCCCCCCCCCCCCCOP(=O)([O-])OCC[N+](C)(C)C` [MILTEFOSINE], the CC50 at 24 h in [8] amounted to 19 µM. Further, the LC50 in the data set with Leishmania infantum [9] was found to be 47.6 µM; with Leishmania infantum [10], 2 µM.

In the case of Ac-RRRRRRRRRKMGISSMVQPKII-NH2, in [8], the CC50 at 24 h was greater than 25 µM. Besides, the LC50 with Leishmania infantum [9] and in the data set on Leishmania infantum [10] was greater than 25 µM throughout.
